Assay [1] concerns the target T1, huPPARα (Homo sapiens, UniProt Q07869).
T1 sequence (Q07869 1-468): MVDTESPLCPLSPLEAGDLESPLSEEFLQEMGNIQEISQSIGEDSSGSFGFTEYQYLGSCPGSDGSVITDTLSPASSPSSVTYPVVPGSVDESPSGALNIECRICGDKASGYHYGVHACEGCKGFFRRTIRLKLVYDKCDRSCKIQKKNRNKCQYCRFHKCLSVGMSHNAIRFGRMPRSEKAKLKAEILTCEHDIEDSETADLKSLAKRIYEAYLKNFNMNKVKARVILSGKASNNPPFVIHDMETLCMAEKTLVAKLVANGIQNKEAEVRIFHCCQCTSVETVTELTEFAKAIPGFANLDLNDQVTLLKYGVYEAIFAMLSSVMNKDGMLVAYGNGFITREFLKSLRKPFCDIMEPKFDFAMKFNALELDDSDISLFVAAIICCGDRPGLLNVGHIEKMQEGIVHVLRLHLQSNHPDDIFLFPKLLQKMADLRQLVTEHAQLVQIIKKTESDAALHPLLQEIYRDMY
T1 sequence (P19793 1-462 partner): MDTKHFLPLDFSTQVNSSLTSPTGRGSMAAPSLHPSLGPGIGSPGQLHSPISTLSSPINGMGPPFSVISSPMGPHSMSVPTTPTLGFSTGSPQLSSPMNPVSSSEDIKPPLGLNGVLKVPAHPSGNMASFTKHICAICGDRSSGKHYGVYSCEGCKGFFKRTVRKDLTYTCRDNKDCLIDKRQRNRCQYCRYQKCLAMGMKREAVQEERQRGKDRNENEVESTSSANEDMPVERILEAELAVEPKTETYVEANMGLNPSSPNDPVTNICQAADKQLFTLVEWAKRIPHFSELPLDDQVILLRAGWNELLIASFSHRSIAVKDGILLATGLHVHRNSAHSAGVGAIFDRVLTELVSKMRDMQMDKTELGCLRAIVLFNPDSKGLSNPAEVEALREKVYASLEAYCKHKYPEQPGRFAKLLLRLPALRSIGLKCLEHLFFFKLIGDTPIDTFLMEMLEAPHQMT
Nature of the assay: DNA-dependent binding (ABCD binding), SPA, huPPARα. The settings on record: displacement of tritium-labeled PPARα agonist radioligand. The procedure: DNA-dependent binding (ABCD binding) was carried out using SPA technology with PPAR receptors. Tritium-labeled PPARγ and PPARα agonists were used as radioligands for generating displacement curves and IC50 values with compounds of the invention. Cotransfection assays were carried out in CV-1 cells. The reporter plasmid contained an acylCoA oxidase (AOX) PPRE and TK promoter upstream of the luciferase reporter cDNA. Appropriate PPARs and RXRα were constitutively expressed using plasmids containing the CMV promoter. […] In order to eliminate such interference, a GAL4 chimeric system was used in which the DNA binding domain of the transfected PPAR was replaced by that of GAL4, and the GAL4 response element was utilized in place of the AOX PPRE. Cotransfection efficacy was determined relative to PPARα agonist and […] reference molecules. Efficacies were determined by computer fit to a concentration-response curve, or in some cases at a single high concentration of agonist (10 μM). For binding or cotransfection studies with receptors other than PPARs, similar assays were carried out using appropriate ligands, receptors, reporter constructs, etc., for that particular receptor.
(§1) These studies were carried out to evaluate the ability of compounds of the invention to bind to and/or activate various nuclear transcription factors, particularly huPPARα (“hu” indicates “human”) and huPPARγ. These studies provide in vitro data concerning efficacy and selectivity of compounds of the invention. Furthermore, binding and cotransfection data for compounds of the invention were compared with corresponding data for marketed compounds that act on either huPPARα or huPPARγ.

Assay [2] has as its system huPPARα. The assay is described as follows: Cotransfection assay in CV-1 cells, huPPARα (GAL4 chimeric system). Format: cell-based, human. The settings on record: luciferase reporter, relative to PPARα agonist reference molecule. The procedure:
DNA-dependent binding (ABCD binding) was carried out using SPA technology with PPAR receptors. Tritium-labeled PPARγ and PPARα agonists were used as radioligands for generating displacement curves and IC50 values with compounds of the invention. Cotransfection assays were carried out in CV-1 cells. The reporter plasmid contained an acylCoA oxidase (AOX) PPRE and TK promoter upstream of the luciferase reporter cDNA. Appropriate PPARs and RXRα were constitutively expressed using plasmids containing the CMV promoter. For PPARα and PPARβ, interference by endogenous PPARγ in CV-1 cells was an issue. In order to eliminate such interference, a GAL4 chimeric system was used in which the DNA binding domain of the transfected PPAR was replaced by that of GAL4, and the GAL4 response element was utilized in place of the AOX PPRE. Cotransfection efficacy was determined relative to PPARα agonist and […] reference molecules. Efficacies were determined by computer fit to a concentration-response curve, or in some cases at a single high concentration of agonist (10 μM). For binding or cotransfection studies with receptors other than PPARs, similar assays were carried out using appropriate ligands, receptors, reporter constructs, etc., for that particular receptor.
as §1

Assay [3] has as its system Hu apoAI transgenic mice. Nature of the assay: Evaluation of triglyceride and cholesterol levels in Hu apoAI transgenic mice. The format is in vivo. The following applies: Mus musculus, 168 h, 30 mg/kg daily oral gavage for 7 days; for change in vivo at 30 mg/kg: pooled sera, read-out: % HDLc Increase (serum, FPLC area under the curve, over vehicle); for inhibition in vivo at 30 mg/kg: serum 3 hours after dosing on day 7, read-out: % Triglyceride Decrease (serum, over mice receiving vehicle). The procedure: After an acclimation period of 2 weeks, animals were individually identified by ear notches, weighed, and assigned to groups based on body weight. Beginning the following morning, mice were dosed daily by oral gavage for 7 days using a 20 gauge, 11⁄2 curved disposable feeding needle (Popper & Sons). […] Prior to termination on day 7, mice were weighed and dosed. Three hours after dosing, animals were anesthetized by inhalation of isoflurane (2-4%; Abbott Laboratories, Chicago, Ill.) and blood obtained via cardiac puncture (0.7-1.0 ml). Whole blood was transferred to serum separator tubes (Vacutainer SST), chilled on ice, and permitted to clot. Serum was obtained after centrifugation at 4° C. and frozen until analysis for triglycerides, total cholesterol, compound levels, and serum lipoprotein profile by fast protein liquid chromatography (FPLC) coupled to an inline detection system. After sacrifice by cervical dislocation, the liver, heart and epididymal fat pads were excised and weighed. […] The percentage decrease in triglyceride serum levels in mice receiving a compound of the invention over mice receiving vehicle are reported in Table 2. […] The absorbance of the dye produced is linearly related to the analyte in the sample. The assays were further modified in our laboratory for use in a 96 well format. […] An additional aliquot of sample, pipetted to a third well and diluted in 200 μl water, provided a blank for each specimen. […] All samples from an experiment were assayed at the same time to minimize inter-assay variability. Serum lipoproteins were separated and cholesterol quantitated with an in-line detection system. […] The change in voltage corresponding to change in cholesterol concentration was plotted vs time and the area under the curve corresponding to the elution of VLDL, LDL and HDL was calculated using Perkin Elmer Turbochrome software.

Regarding `Cc1sc(-c2cccc(-c3ccccc3)c2)nc1CCOc1ccc(OC(C)(C)C(=O)O)cc1` [Example 46, 2-{4-[2-(2-Biphenyl-3-yl-5-methyl-thiazol-4-yl)-ethoxy]-phenoxy}-2-methyl-propionic acid], the half-maximal inhibitory concentration (IC50) – broadly, the midpoint of a concentration-inhibition curve – in assay [1] worked out at 447 nM. Also, the “huPPARα CTF Efficacy” value in assay [2] worked out at 122%. Further, in assay [3], the change in vivo at 30 mg/kg was found to be 26% and the inhibition in vivo at 30 mg/kg amounted to 16.4%.

With `Cc1oc(-c2ccc(-c3ccccc3)cc2)nc1CCOc1cccc(OC(C)(C)C(=O)O)c1` [Example 21, 2-{3-[2-(2-Biphenyl-4-yl-5-methyloxazol-4-yl)ethoxy]phenoxy}-2-methylpropionic acid], the IC50 in assay [1] was 97 nM. In addition, the “huPPARα CTF Efficacy” value in assay [2] was 92%. In assay [3], the change in vivo at 30 mg/kg stood at 204% and the inhibition in vivo at 30 mg/kg was determined as 60.5%.

`Cc1oc(-c2ccc(-c3c(F)cccc3F)cc2)nc1CCOc1ccc(OC(C)(C)C(=O)O)cc1` [Example 14, 2-(4-{2-[2-(2′,6′-Difluorobiphenyl-4-yl)-5-methyloxazol-4-yl]-ethoxy}-phenoxy)-2-methylpropionic acid] showed a concentration for half-maximal inhibition (IC50) in assay [1] of 155 nM. Also, in assay [2], the “huPPARα CTF Efficacy” value worked out at 90%. Moreover, in assay [3], the change in vivo at 30 mg/kg amounted to 66% and the inhibition in vivo at 30 mg/kg amounted to 67.5%.

(Values after patent US6417212B1, “Modulators of peroxisome proliferator activated receptors” (Eli Lilly & Company, priority 1999, dated 2002).)
